Experiments:
[1] = Hydrolysis of OPA acetals to OPA in distilled water at various pH, monitored by GC/MS; format: physicochemical; details: room temperature
Description: The reactions of 1,3-dimethoxyphthalan, 1,3-diethoxyphthalan, a PEG 200 pegylated OPA acetal at various pH in distilled water were evaluated at room temperature. The acetals were suspended in distilled water, followed by pH measurement, and pH adjustment with either hydrogen chloride (HCl), phthalic acid, or sodium hydroxide (NaOH), depending on the particular pH. The mixture was stirred at room temperature and monitored by gas chromatograph/mass spectroscopy (GC/MS) at various time intervals.
The hydrolysis rate depends upon pH. Over the range of pH investigated, the lower the pH, the faster the hydrolysis rate.

[2] = Hydrolysis of 1,3-diethoxyphthalan in the presence of OPA in distilled water at various pH, monitored by GC/MS; format: physicochemical
Description: The hydrolysis of 1,3-diethoxyphthalan in the presence of OPA in distilled water at various pH was evaluated at room temperature. 1,3-Diethoxyphthalan was added to the OPA solution in distilled water, followed by pH measurement and adjustment with either HCl or NaOH, depending on the pH. The mixtures were stirred at room temperature and monitored by GC/MS at various time intervals.

[3] = Solubility in 30% polyethylene glycol plus water solution; format: physicochemical
[4] = Hydrolysis of the tetramethyl acetal of IPA to IPA in water, gas chromatography; format: physicochemical; details: pH 4.34 (HCl)
Description: The process takes place in two staged reactions. In one experiment, the tetramethyl acetal of IPA (0.114 g, 0.504 mmol) was suspended in 100 mL of water including 67 mg of OPA as the internal standard. A relatively large volume of water was used due to the low solubility of IPA. The pH of the water was adjusted to 4.34 with 1% HCl. At various time intervals 0.5 mL of the reaction mixture was sampled and extracted with 1 mL of ethyl acetate (EtOAc). The samples were analyzed with gas chromatography.
The diacetal starting material disappeared within 8 h, but hydrolysis of the second acetal group of the monoacetal took longer period of time.

[5] = cited from earlier work
[6] = pH = 6.95, NaOH adjusted, 120 h
[7] = pH = 6.95, NaOH adjusted, 168 h
[8] = pH = 6.95, NaOH adjusted, 240 h
[9] = pH = 6.95, NaOH adjusted, 312 h
[10] = pH = 6.95, NaOH adjusted, 480 h
[11] = pH = 6.95, NaOH adjusted, 552 h
[12] = pH = 8.9, NaOH adjusted, 1200 h

## CCOC1OC(OCC)c2ccccc21 (centres unmarked) [1,3-diethoxyphthalan]
[1]; pH = 5.4, HCl adjusted, water, 0 h
  OPA (w/w %): 0.000 w/w %
[1]; pH = 5.4, HCl adjusted, water, 2 h
  OPA (w/w %): 0.024 w/w %
[1]; pH = 5.4, HCl adjusted, water, 48 h
  OPA (w/w %): 0.056 w/w %
[1]; pH = 5.4, HCl adjusted, water, 120 h
  OPA (w/w %): 0.158 w/w %
[1]; pH = 5.4, HCl adjusted, water, 240 h
  OPA (w/w %): 0.296 w/w %
[1]; pH = 5.4, HCl adjusted, water, 360 h
  OPA (w/w %): 0.525 w/w %
[1]; pH = 5.4, HCl adjusted, water, 480 h
  OPA (w/w %): 0.596 w/w %
[1]; pH = 6.9, water, 0 h
  OPA (w/w %): 0.000 w/w %
[1]; pH = 6.9, water, 1 h
  OPA (w/w %): 0.000 w/w %
[1]; pH = 6.9, water, 20 h
  OPA (w/w %): 0.010 w/w %
[1]; pH = 6.9, water, 144 h
  OPA (w/w %): 0.097 w/w %
[1]; pH = 6.9, water, 240 h
  OPA (w/w %): 0.204 w/w %
[1]; pH = 6.9, water, 359 h
  OPA (w/w %): 0.419 w/w %
[1]; pH = 6.9, water, 480 h
  OPA (w/w %): 0.476 w/w %
[1]; pH = 10.8, NaOH adjusted, water, 48 h
  OPA (w/w %): 0.0048 w/w %
[1]; pH = 10.8, NaOH adjusted, water, 120 h
  OPA (w/w %): 0.0062 w/w %
[1]; pH = 10.8, NaOH adjusted, water, 480 h
  OPA (w/w %): 0.0473 w/w %
[1]; pH = 10.8, NaOH adjusted, water, 720 h
  OPA (w/w %): 0.112 w/w %
[1]; pH = 10.8, NaOH adjusted, water, 960 h
  OPA (w/w %): 0.229 w/w %
[2]; pH = 6.95, NaOH adjusted, 0 h
  Acetal %: 21.8%
  OPA %: 78.2%
  OPA (w %): 0.498 w %
[2]; pH = 6.95, NaOH adjusted, 48 h
  Acetal %: 18.1%
  OPA %: 81.9%
  OPA (w %): 0.509 w %
[2]; [6]
  Acetal %: 12.1%
  OPA %: 87.9%
  OPA (w %): 0.527 w %
[2]; [7]
  Acetal %: 9.4%
  OPA %: 90.6%
  OPA (w %): 0.535 w %
[2]; [8]
  Acetal %: 6.4%
  OPA %: 93.6%
  OPA (w %): 0.543 w %
[2]; [9]
  Acetal %: 4.2%
  OPA %: 95.8%
  OPA (w %): 0.550 w %
[2]; [10]
  Acetal %: 1.2%
  OPA %: 98.8%
  OPA (w %): 0.559 w %
[2]; [11]
  Acetal %: 0.7%
  OPA %: 99.3%
  OPA (w %): 0.560 w %
[2]; pH = 8.0, NaOH adjusted, 0 h
  Acetal %: 20.9%
  OPA %: 79.1%
  OPA (w %): 0.498 w %
[2]; pH = 8.0, NaOH adjusted, 48 h
  Acetal %: 21.6%
  OPA %: 78.4%
  OPA (w %): 0.496 w %
[2]; pH = 8.0, NaOH adjusted, 144 h
  Acetal %: 18.6%
  OPA %: 81.4%
  OPA (w %): 0.505 w %
[2]; pH = 8.0, NaOH adjusted, 240 h
  Acetal %: 17%
  OPA %: 83.0%
  OPA (w %): 0.510 w %
[2]; pH = 8.0, NaOH adjusted, 312 h
  Acetal %: 15.2%
  OPA %: 84.8%
  OPA (w %): 0.515 w %
[2]; pH = 8.0, NaOH adjusted, 480 h
  Acetal %: 10.4%
  OPA %: 89.6%
  OPA (w %): 0.530 w %
[2]; pH = 8.0, NaOH adjusted, 576 h
  Acetal %: 8.1%
  OPA %: 91.9%
  OPA (w %): 0.537 w %
[2]; pH = 8.0, NaOH adjusted, 720 h
  Acetal %: 3.4%
  OPA %: 96.6%
  OPA (w %): 0.551 w %
[2]; pH = 8.0, NaOH adjusted, 840 h
  Acetal %: 2%
  OPA %: 98.0%
  OPA (w %): 0.555 w %
[2]; pH = 8.0, NaOH adjusted, 960 h
  Acetal %: 1%
  OPA %: 99.0%
  OPA (w %): 0.558 w %
[2]; pH = 8.9, NaOH adjusted, 0 h
  Acetal %: 21.8%
  OPA %: 78.2%
  OPA (w %): 0.498 w %
[2]; pH = 8.9, NaOH adjusted, 96 h
  Acetal %: 21.4%
  OPA %: 78.6%
  OPA (w %): 0.498 w %
[2]; pH = 8.9, NaOH adjusted, 240 h
  Acetal %: 18.8%
  OPA %: 81.2%
  OPA (w %): 0.507 w %
[2]; pH = 8.9, NaOH adjusted, 336 h
  Acetal %: 17.2%
  OPA %: 82.8%
  OPA (w %): 0.511 w %
[2]; pH = 8.9, NaOH adjusted, 480 h
  Acetal %: 13.8%
  OPA %: 86.2%
  OPA (w %): 0.521 w %
[2]; pH = 8.9, NaOH adjusted, 600 h
  Acetal %: 11.0%
  OPA %: 89.0%
  OPA (w %): 0.530 w %
[2]; pH = 8.9, NaOH adjusted, 720 h
  Acetal %: 6.7%
  OPA %: 93.3%
  OPA (w %): 0.542 w %
[2]; pH = 8.9, NaOH adjusted, 840 h
  Acetal %: 4.6%
  OPA %: 95.4%
  OPA (w %): 0.548 w %
[2]; pH = 8.9, NaOH adjusted, 960 h
  Acetal %: 3.0%
  OPA %: 97.0%
  OPA (w %): 0.553 w %
[2]; [12]
  Acetal %: 1.2%
  OPA %: 98.8%
  OPA (w %): 0.558 w %
[2]; range of pH investigated
  Dependence of hydrolysis rate on pH: the hydrolysis rate increases with decreasing pH

## O=Cc1cccc(C=O)c1 [IPA, 1,3-benzenedicarboxaldehyde, reference compound]
[3]
  Solubility: less than 0.4%
[4]; 8 h
  Mole % in reaction mixture during hydrolysis: 20.3 Mole %
  wt % in reaction mixture during hydrolysis: 0.014 wt %
[4]; 32 h
  Mole % in reaction mixture during hydrolysis: 66.1 Mole %
  wt % in reaction mixture during hydrolysis: 0.045 wt %
[4]; 54 h
  Mole % in reaction mixture during hydrolysis: 100 Mole %
  wt % in reaction mixture during hydrolysis: 0.068 wt %

## COC(OC)c1cccc(C=O)c1 [Monoacetal]
[4]; 8 h
  Mole % in reaction mixture during hydrolysis: 79.7 Mole %
  wt % in reaction mixture during hydrolysis: 0.091 wt %
[4]; 32 h
  Mole % in reaction mixture during hydrolysis: 33.9 Mole %
  wt % in reaction mixture during hydrolysis: 0.039 wt %
[4]; 54 h
  Mole % in reaction mixture during hydrolysis: 0 Mole %
  wt % in reaction mixture during hydrolysis: 0 wt %

## O=Cc1ccccc1C=O [phthalaldehyde, 1,2-benzenedicarboxaldehyde]
[5]
  Solubility in water: about 5 % by weight

## COC1OC(OC)c2ccccc21 (centres unmarked) [1,3-dimethoxyphthalan]
[1]; pH = 5.0 (phthalic acid), water, 0 h
  OPA (w/w %): 0.000 w/w %
[1]; pH = 5.0 (phthalic acid), water, 24 h
  OPA (w/w %): 0.028 w/w %
[1]; pH = 5.0 (phthalic acid), water, 120 h
  OPA (w/w %): 0.166 w/w %
[1]; pH = 5.0 (phthalic acid), water, 240 h
  OPA (w/w %): 0.301 w/w %
[1]; pH = 5.0 (phthalic acid), water, 360 h
  OPA (w/w %): 0.367 w/w %
[1]; pH = 5.0 (phthalic acid), water, 480 h
  OPA (w/w %): 0.405 w/w %
[1]; pH = 5.0 (phthalic acid), water, 576 h
  OPA (w/w %): 0.417 w/w %

— patent publication US7291649B2, “Forming germicidal aromatic dialdehydes with acetals” (Ethicon, Inc., priority 2005, dated 2007)
